Assay results: publication PMC5905968, “Evaluation of the fusion inhibitor P3 peptide as a potential microbicide to prevent HIV transmission in women” (PLoS ONE, 2018)

Legend:
HIV-1 isolate 93AOHDC250 = test: Single-round viral infectivity assay, luciferase, TZM-bl reporter cells, after exposure of P3 to fluids, temperature, pH or H2O2
Method: The antiviral activity of P3 in the presence of SP and VFS was determined with a single-round viral infectivity assay using TZM-bl reporter cells, as previously described. Briefly, TZM-bl cells were plated (1x10^4 cells/well) in a 96-plate and incubated overnight at 37°C with 5% CO2. […] The same procedure was done with VFS and with SP+VFS. Cells were then infected with 200 TCID50 (in 100 μl) of HIV-1 isolate 93AOHDC250 and incubated for 48h before measuring the luciferase activity with the Pierce Firefly Luc One-Step Glow Assay Kit (ThermoFisher Scientific, Rockford, USA) according to the manufacturer’s instructions. At least two independent experiments, each in triplicate, were performed for each antiviral activity analysis. For these experiments, the positive control was made of cells plus virus, the negative control was made of cells plus complete growth medium, compound controls were made of cells plus P3 alone or P3 in SP, VFS or SP+VPS, and the biological fluids control were made of cells plus SP, VFS or SP+VFS.
The long-term stability of P3 was evaluated in the presence of SP [0.5% or 1% (v/v)] or VFS at 37°C for a period of 24h, 48h and 1 week before performing the assay, as described above. In all cases, P3 was considered stable in the presence of biologic fluids if its antiviral activity was unaffected by SP, VFS and SP+VFS. In addition, peptide concentration was determined after exposure to the above conditions by mass spectrometry as described below.
The stability and antiviral activity of P3 were evaluated at different conditions of temperature, pH and oxidation. […] The antiviral activity of each peptide solution was then evaluated with a single-round viral infectivity assay using TZM-bl reporter cells and HIV-1 isolate 93AOHDC250, as described above.
The effect of pH on P3 was evaluated at pH ranging from 4 to 8. Briefly, IC50 peptide solutions were prepared in GM and the pH was adjusted using HCl (1M) or NaOH (1M). Each solution was then incubated at 37°C for 2, 8 and 24 hours and their antiviral activity was determined in a single-round viral infectivity assay using a luciferase reporter gene assay in TZM-bl cells as described above.
To test for oxidation by H2O2, P3 solutions at concentrations corresponding to the IC50 and IC90 were treated with H2O2 at biologic relevant concentrations (1.2μM and 5μM). The antiviral activity of the different solutions was determined in a single-round viral infectivity assay using a luciferase reporter gene assay in TZM-bl cells, as described above.
Controls for these experiments were the following: positive controls (cells plus virus), negative controls (cells plus complete growth medium); pH compound controls (cells plus P3 in different pH growth medium); H2O2 compound controls (cells plus P3 in H2O2, 1.2μM or 5μM); cell controls were also performed under the same incubation conditions. H2O2 and pH cytotoxicity were assessed in TZM-bl cells using alamarBlue assay. In all cases, P3 was considered stable when its antiviral activity was unaffected under the different conditions tested.

spermatozoa = test: Spermicidal activity: sperm motility (CASA) and viability (Eosin Y); type: cell-based, human; conditions: 114 μM P3, 37°C, 0, 30, 60, 120 and 240 min, versus control without P3; donors n = 3
Method: Sperm was obtained from normal donors (n = 3) after signing a written informed consent. […] Spermatozoa viability was evaluated by dye exclusion method using a solution of Eosin Y (5mg/mL). Two hundred spermatozoa were counted with a phase-contrast microscope (Olympus, Modell BH-2), differentiating the live (unstained) spermatozoa from the dead (stained) cells. Sperm motility was evaluated in a Makler chamber using a computer-aided sperm analysis system (CASA, Hamilton Thorne Research, MA, USA). At least five microscopic fields were assessed in a systematic way to classify 200 spermatozoa motility. Each spermatozoon is graded according to cell velocity: progressive motility (i.e.,>5 μm/s), non-progressive motility (<5 μm/s) and immotility.

[1] = LC-MS/MS determination of P3 after exposure to seminal plasma or vaginal fluid simulant; type: in vitro ADME, human; conditions: triplicates; for P3 level: 37°C, LC-MS/MS, below limit of quantification (2.5 ppm)
Method: Individual standard solutions (0.25–250 ppm) of P3 were prepared in acetonitrile (99.9% LC–MS) (J.T.Baker, Deventer, the Netherlands) in the presence of SP (0.5 or 1.0%), VFS or growth medium (GM) and analyzed after 24h, 48h and 1 week. In order to precipitate the proteins in the biological fluids, 1 ml of acetonitrile (1:1) was added to 1 ml of sample and samples were centrifuged at 13,000 rpm for 10 min and filtered ([…] PVDF membrane; Chromafil®Xtra from Macherey-Nagel®) just before analysis, All samples were analyzed as triplicates.
The LC system was a Waters® Alliance 2695 (Waters®) equipped with a quaternary pump, solvent degasser, auto sampler and column oven, coupled to a Photodiode Array Detector Waters 996 PDA (Waters®) scanning from 210 to 600 nm. The separation was performed on a reversed phase column LiChrospher® 100 RP-18 (10 x 4.0mm; Merck®, Germany) operating at 35 °C, using an injection volume of 10 μl. The mobile phase consisted of water [Ultra-pure water (18.2MΩ.cm) from a Millipore-Direct Q3 UV system (Millipore, USA)] with TFA 0.1% (v/v) (98% p.a.; Merck®, Germany) (A) and acetonitrile with TFA 0.1% (v/v) (B) at a flow rate of 0.30 ml/min. The following gradient was used: 70% of A as initial conditions, 70% A to 30% A for 7 min. A cleaning step was performed using 100% of acetonitrile for 1 min and finally the column was re-equilibrated with 70% of eluent A for 5 min.
A triple quadrupole mass spectrometer MicroMass® Quattro micro (Micromass®, Waters®) with an electrospray ionization source (ESI) was coupled to the LC system, described above. The ion source conditions were optimized using a standard solution directly injected in the ion source: temperature 120°C, capillary voltage 3.0 kV and cone voltage 50 V. The compound was ionized in positive ion mode and the spectra, in Full Scan, were recorded in the range m/z 100–1700. All analyses were performed in multiple reactions monitoring (MRM) mode in order to achieve a high selectivity and sensitivity. […]

Q: With CC[C@H](C)[C@H](NC(=O)[C@H](CC(N)=O)NC(=O)[C@H](C)NC(=O)[C@H](CCC(=O)O)NC(=O)[C@H](CC(C)C)NC(=O)[C@H](Cc1ccc(O)cc1)NC(=O)[C@H](CCCNC(=N)N)NC(=O)[C@@H](NC(=O)[C@H](CCC(N)=O)NC(=O)[C@H](CCC(N)=O)NC(=O)[C@H](CCC(=O)O)NC(=O)[C@H](Cc1c[nH]c2ccccc12)NC(=O)[C@H](CCC(=O)O)NC(=O)[C@H](CCC(N)=O)NC(=O)[C@H](Cc1c[nH]c2ccccc12)NC(C)=O)C(C)C)C(=O)N[C@@H](CO)C(=O)N[C@@H](CCC(N)=O)C(=O)N[C@@H](CCCNC(=N)N)C(=O)N[C@@H](CC(C)C)C(=O)N[C@@H](CCC(=O)O)C(=O)N[C@@H](CCC(N)=O)C(=O)N[C@@H](C)C(=O)N[C@@H](CCC(N)=O)C(=O)N[C@H](C(=O)N[C@@H](CCC(N)=O)C(=O)N[C@@H](CCC(N)=O)C(=O)N[C@@H](CCC(=O)O)C(=O)N[C@@H](CCCCN)C(=O)N[C@@H](CC(N)=O)C(=O)N[C@@H](CCSC)C(=O)N[C@@H](Cc1ccc(O)cc1)C(=O)N[C@@H](CCC(=O)O)C(=O)N[C@@H](CC(C)C)C(=O)N[C@@H](CCC(N)=O)C(N)=O)[C@@H](C)CC [P3] as the compound, how does the “antiviral activity in the presence of SP 1%” value (HIV-1 isolate 93AOHDC250; P3 366.4 nM, seminal plasma 1% (v/v), 37°C, 1 week) read?
A: significant decrease of antiviral activity

Q: And the “antiviral activity in the presence of human fluids” value (HIV-1 isolate 93AOHDC250; P3 366.4 nM, SP 0.5% or 1% (v/v), VFS, SP+VFS, 37°C, up to 1 week of contact, at least two experiments in triplicate)?
A: unaffected

Q: What about the “time of full antiviral activity in the presence of human biological fluids” value (HIV-1 isolate 93AOHDC250; P3 366.4 nM, SP 0.5% or 1%, VFS, 37°C) of the same compound?
A: at least 48 h

Q: What about the mean viral inhibition (HIV-1 isolate 93AOHDC250; P3 at IC90 (366.4 nM) in growth medium, incubated 1 week at 25°C before assay) of the same compound?
A: 99%

Q: And the mean viral inhibition (HIV-1 isolate 93AOHDC250; P3 at IC90 (366.4 nM) in growth medium, incubated 1 week at 37°C before assay)?
A: 99%

Q: And the mean viral inhibition (HIV-1 isolate 93AOHDC250; P3 at IC90 (366.4 nM) in growth medium, incubated 1 week at 65°C before assay)?
A: 100%

Q: What about the mean viral inhibition (HIV-1 isolate 93AOHDC250; control: P3 at IC90 (366.4 nM), antiviral activity determined after 48h at 37°C) of the same compound?
A: 99%

Q: What about the spermatozoa motility (spermatozoa) of the same compound?
A: No significant changes

Q: What about the spermatozoa vitality (spermatozoa) of the same compound?
A: No significant changes

Q: And the P3 level ([1]; after 48h in 1% human seminal plasma)?
A: < 2.5 µg/mL

Q: What about the P3 level ([1]; after one week in 0.5% human seminal plasma) of the same compound?
A: < 2.5 µg/mL

Q: What about the “detection of P3 in the presence of VFS” value ([1]; vaginal fluid simulant pH 4.2, LC-MS/MS (MRM)) of the same compound?
A: readily detectable
